For 43 molecules, IC50 results are on record in ChEMBL document CHEMBL1136301, “1,2,5,6-tetra-O-benzyl-D-mannitol derivatives as novel HIV protease inhibitors” (Bioorg Med Chem Lett, 2003).

A word on the IC50: it is the concentration needed to halve the response being measured.

The target of this assay is Human immunodeficiency virus type 1 protease (Human immunodeficiency virus 1, UniProt Q72874). In words: Inhibitory activity against HIV-1 protease.

For the molecule `Cc1ccc(COC(COCc2ccccc2)C(O)C(O)C(COCc2ccccc2)OCc2ccc(C)cc2)cc1` (stereo not drawn), the IC50 amounted to 3.7 µM.

For the molecule `O[C@H]([C@H](O)[C@H](COCc1ccccc1)OCc1ccccc1)[C@@H](COCc1ccccc1)OCc1ccccc1`, the IC50 was more than 50 µM.

For the molecule `OC(C(COCc1ccc(C(F)(F)F)cc1)OCc1ccc(C(F)(F)F)cc1)C(O)C(COCc1ccc(C(F)(F)F)cc1)OCc1ccc(C(F)(F)F)cc1` (stereo not drawn), half-maximal inhibition (IC50) required 6 µM.

Turning to `OC(C(COCc1ccccc1)OCc1cccc(F)c1)C(O)C(COCc1ccccc1)OCc1cccc(F)c1` (stereo not drawn), the IC50 worked out at 1.8 µM.

`Cc1ccc(COCC(OCc2ccc(C)cc2)C(O)C(O)C(COCc2ccc(C)cc2)OCc2ccc(C)cc2)cc1` (stereo not drawn) displayed an IC50 of 7 µM.

Turning to `OC(C(COCc1ccc(Cl)cc1)OCc1ccccc1)C(O)C(COCc1ccc(Cl)cc1)OCc1ccccc1` (stereo not drawn), the IC50 came to 5.2 µM.

As for `COC(=O)c1ccc(COCC(OCc2ccccc2)C(O)C(O)C(COCc2ccc(C(=O)OC)cc2)OCc2ccccc2)cc1` (stereo not drawn), the IC50 worked out at 2 µM.

On to `OC(C(COCc1ccccc1)OCc1ccc(F)cc1)C(O)C(COCc1ccccc1)OCc1ccc(F)cc1` (stereo not drawn), for which the IC50 is 0.7 µM.

`NCc1ccc(COC(COCc2ccccc2)C(O)C(O)C(COCc2ccccc2)OCc2ccc(CN)cc2)cc1` (stereo not drawn): half-maximal inhibition (IC50) was put at 27 µM.

The molecule `OC(C(COCc1ccc(F)cc1)OCc1ccccc1)C(O)C(COCc1ccc(F)cc1)OCc1ccccc1` (stereo not drawn) showed an IC50 of 2.5 µM.

As for `O[C@@H]([C@H](O)[C@@H](COc1ccccc1)OCc1ccccc1)[C@@H](COc1ccccc1)OCc1ccccc1`, the IC50 was more than 50 µM.

In turn, `NC(=O)c1ccc(COC(COCc2ccccc2)C(O)C(O)C(COCc2ccccc2)OCc2ccc(C(N)=O)cc2)cc1` (stereo not drawn) displayed an IC50 of 20 µM.

With `OC(C(COCc1ccccc1)OCc1ccccc1F)C(O)C(COCc1ccccc1)OCc1ccccc1F` (stereo not drawn), the 50% inhibitory concentration (IC50) came out at 3.7 µM.

Regarding `O[C@H]([C@@H](O)[C@H](COCc1ccccc1)OCc1ccccc1)[C@H](COCc1ccccc1)OCc1ccccc1`, the IC50 was more than 50 µM.

Molecule `O[C@@H]([C@H](O)[C@@H](COCc1ccccc1)OCc1ccccc1)[C@@H](COCc1ccccc1)OCc1ccccc1` gave an IC50 of 2.4 µM.

Take `OC(C(COCc1cccc(F)c1)OCc1ccccc1)C(O)C(COCc1cccc(F)c1)OCc1ccccc1` (stereo not drawn): the midpoint of inhibition, the IC50, lay at 1.5 µM.

For the molecule `N#Cc1ccc(COC(COCc2ccccc2)C(O)C(O)C(COCc2ccccc2)OCc2ccc(C#N)cc2)cc1` (stereo not drawn), the IC50 is 5.4 µM.

`Cc1ccccc1COC(COCc1ccccc1F)C(O)C(O)C(COCc1ccccc1F)OCc1ccccc1C` (stereo not drawn) showed an IC50 of 0.8 µM.

The molecule `OC(C(COCc1ccccc1)OCc1ccc(C(F)(F)F)cc1)C(O)C(COCc1ccccc1)OCc1ccc(C(F)(F)F)cc1` (stereo not drawn) yielded an IC50 of 10 µM.

`OC(C(COCc1ccccc1)OCc1ccc(Cl)cc1)C(O)C(COCc1ccccc1)OCc1ccc(Cl)cc1` (stereo not drawn) registered an IC50 of 2 µM.

Consider `O[C@@H]([C@H](O)[C@@H](Cc1ccccc1)OCc1ccccc1)[C@@H](Cc1ccccc1)OCc1ccccc1`, for which the IC50 was more than 50 µM.

On to `COC(=O)c1ccc(COC(COCc2ccccc2)C(O)C(O)C(COCc2ccccc2)OCc2ccc(C(=O)OC)cc2)cc1` (stereo not drawn), for which the IC50 was determined as 8.4 µM.

The molecule `OC(C(COCc1ccccc1)OCc1ccc(F)cc1F)C(O)C(COCc1ccccc1)OCc1ccc(F)cc1F` (stereo not drawn) gave an IC50 of 2.6 µM.

As for `OC(C(COCc1c(F)cccc1F)OCc1ccc(F)cc1)C(O)C(COCc1c(F)cccc1F)OCc1ccc(F)cc1` (stereo not drawn), the midpoint of inhibition, the IC50, lay at 0.33 µM.

`OC(C(COCc1c(F)cccc1F)OCc1ccccc1)C(O)C(COCc1c(F)cccc1F)OCc1ccccc1` (stereo not drawn) registered an IC50 of 0.33 µM.

As to `O=C(O)c1ccc(COCC(OCc2ccccc2)C(O)C(O)C(COCc2ccc(C(=O)O)cc2)OCc2ccccc2)cc1` (stereo not drawn), the IC50 is 5 µM.

Regarding `N#Cc1ccc(COCC(OCc2ccc(C#N)cc2)C(O)C(O)C(COCc2ccc(C#N)cc2)OCc2ccc(C#N)cc2)cc1` (stereo not drawn), the IC50 is 3.1 µM.

`OC(C(COCc1ccccc1)OCc1c(F)cccc1F)C(O)C(COCc1ccccc1)OCc1c(F)cccc1F` (stereo not drawn) came in with an IC50 of 6.4 µM.

Take `OCc1ccc(COCC(OCc2ccccc2)C(O)C(O)C(COCc2ccc(CO)cc2)OCc2ccccc2)cc1` (stereo not drawn): the IC50 was determined as 1.2 µM.

The molecule `OC(C(COCc1ccc(Br)cc1)OCc1ccccc1)C(O)C(COCc1ccc(Br)cc1)OCc1ccccc1` (stereo not drawn) displayed an IC50 of 6 µM.

Turning to `OC(C(COCc1ccccc1)OCc1ccc(Br)cc1)C(O)C(COCc1ccccc1)OCc1ccc(Br)cc1` (stereo not drawn), half-maximal inhibition (IC50) required 2.1 µM.

Molecule `OC(C(COCc1ccccc1F)OCc1ccccc1)C(O)C(COCc1ccccc1F)OCc1ccccc1` (stereo not drawn) had an IC50 of 0.6 µM.

`O[C@H]([C@H](O)[C@@H](COCc1ccccc1)OCc1ccccc1)[C@@H](COCc1ccccc1)OCc1ccccc1` registered an IC50 of more than 50 µM.

As to `N#Cc1ccc(COCC(OCc2ccccc2)C(O)C(O)C(COCc2ccc(C#N)cc2)OCc2ccccc2)cc1` (stereo not drawn), half-maximal inhibition (IC50) was put at 4.3 µM.

In turn, `O[C@@H]([C@H](OCc1ccccc1)[C@H](COCc1ccccc1)OCc1ccccc1)[C@@H](COCc1ccccc1)OCc1ccccc1` returned an IC50 of more than 50 µM.

With `OC(C(COCc1ccc(F)cc1F)OCc1ccccc1)C(O)C(COCc1ccc(F)cc1F)OCc1ccccc1` (stereo not drawn), the IC50 was 4.2 µM.

Consider `OC(C(COCc1ccc(C(F)(F)F)cc1)OCc1ccccc1)C(O)C(COCc1ccc(C(F)(F)F)cc1)OCc1ccccc1` (stereo not drawn), for which the IC50 stood at 5 µM.

For `O[C@@H](C[C@@H](COCc1ccccc1)OCc1ccccc1)[C@@H](COCc1ccccc1)OCc1ccccc1`, the IC50 was more than 50 µM.

In turn, `OC(C(COCc1ccccc1F)OCc1ccc(F)cc1)C(O)C(COCc1ccccc1F)OCc1ccc(F)cc1` (stereo not drawn) came in with an IC50 of 0.2 µM.

In turn, `O=C(O)c1ccc(COC(COCc2ccccc2)C(O)C(O)C(COCc2ccccc2)OCc2ccc(C(=O)O)cc2)cc1` (stereo not drawn) had an IC50 of 26 µM.

The molecule `OC(C(COCc1ccc(F)cc1)OCc1ccc(F)cc1)C(O)C(COCc1ccc(F)cc1)OCc1ccc(F)cc1` (stereo not drawn) came in with an IC50 of 1.6 µM.

Turning to `Cc1ccc(COCC(OCc2ccccc2)C(O)C(O)C(COCc2ccc(C)cc2)OCc2ccccc2)cc1` (stereo not drawn), half-maximal inhibition (IC50) required 3 µM.

`OCc1ccc(COC(COCc2ccccc2)C(O)C(O)C(COCc2ccccc2)OCc2ccc(CO)cc2)cc1` (stereo not drawn): the IC50 turned out to be 10 µM.
